These results are taken from patent US12364764B2, “Sustained release thermosetting gels comprising sodium channel blockers and the methods of making same” (Pacira Therapeutics, Inc., priority 2019, dated 2025).

The data set is described as follows: Measured drug load / API content of funapide gel formulations. The class given is physicochemical.

For `O=C1N(Cc2ccc(C(F)(F)F)o2)c2ccccc2[C@]12COc1cc3c(cc12)OCO3` [funapide], the “drug concentration that can be loaded within the thermosensitive hydrogel formulation” value was “up to 20 mg/mL”.
